± gives the standard deviation of the averaged measurements.
Legend:
Test in all cases: level (log10 ratio to DMSO vehicle control); higher = higher biomarker level / cell amount than vehicle control
Settings in all cases: in DMSO
[1] = compound: C=C(C)C(=O)OCCC(F)(F)C(F)(F)C(F)(F)C(F)(F)C(F)(F)C(F)(F)F [6:2 Fluorotelomer methacrylate]
Procedure: (§1)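 BioMAP Diversity Plus panel of 12 human primary cell co-culture systems (3C, 4H, LPS, SAg, BT, BF4T, BE3C, CASM3C, HDF3CGF, KF3CT, MyoF, Mphg). Compounds were added 1 h before stimulation and left for 24 h (MyoF 48 h; BT 72 h for soluble read-outs or 6 d for IgG). Biomarkers were read by ELISA, cytotoxicity by SRB, PBMC viability and proliferation by Alamar Blue. Each well value was divided by the mean of 8 DMSO control wells on the same plate and log10 transformed; duplicate blinded samples were tested at 4 concentrations.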

[2] = compound: COC(=O)C(F)(F)C(F)(F)OC(F)(C(F)(F)F)C(F)(F)OC(F)=C(F)F [Methyl perfluoro(3-(1-ethenyloxypropan-2-yloxy)propanoate)]
Procedure: as §1

[3] = compound: FC(F)(F)C(F)(F)CNCC(F)(F)C(F)(F)F [Bis(1H,1H-perfluoropropyl)amine]
Procedure: as §1

[4] = compound: NC(=O)C(F)(F)C(F)(F)C(F)(F)C(F)F
Procedure: as §1

[5] = compound: O=C(O)C(F)(F)C(F)(F)C(F)(F)C(F)(F)C(F)(F)C(F)(F)C(F)(F)C(F)(F)C(F)(F)C(F)F [11-H-Perfluoroundecanoic acid]
Procedure: as §1

[6] = compound: O=S(=O)(F)C(F)(F)C(F)(F)C(F)(F)C(F)(F)C(F)(F)C(F)(F)C(F)(F)C(F)(F)F [Perfluorooctanesulfonyl fluoride]
Procedure: as §1

[7] = compound: O=S(=O)(O)C(F)(F)C(F)(F)C(F)(F)C(F)(F)C(F)(F)C(F)(F)C(F)(F)C(F)(F)C(F)(F)C(F)(F)F [Sodium perfluorodecanesulfonate]
Procedure: as §1

Test System | level (log10) ([1]; 6700 nM) | level (log10) ([1]; 20000 nM) | level (log10) ([1]; 60000 nM) | level (log10) ([2]; 6700 nM) | level (log10) ([2]; 20000 nM) | level (log10) ([3]; 6700 nM) | level (log10) ([3]; 20000 nM) | level (log10) ([3]; 60000 nM) | level (log10) ([4]; 6700 nM) | level (log10) ([4]; 20000 nM) | level (log10) ([4]; 60000 nM) | level (log10) ([5]; 6700 nM) | level (log10) ([5]; 20000 nM) | level (log10) ([6]; 6700 nM) | level (log10) ([6]; 20000 nM) | level (log10) ([6]; 60000 nM) | level (log10) ([7]; 1500 nM) | level (log10) ([7]; 4400 nM) | level (log10) ([7]; 13000 nM) | level (log10) ([7]; 40000 nM)
LPS:CD141/Thrombomodulin | -0.039 ± 0.025 | -0.0465 ± 0.04 | -0.091 ± 0.017 | -0.05 ± 0.0099 | -0.071 ± 0.027 | 0.046 ± 0.088 | 0.0005 ± 0.14 | -0.0095 ± 0.096 | -0.037 ± 0.023 | -0.0225 ± 0.028 | -0.02 ± 0.021 | 0.0875 ± 0.057 | 0.051 ± 0.092 | 0.0105 ± 0.025 | 0.0045 ± 0.0078 | 0.0055 ± 0.012 | -0.0315 ± 0.0064 | 0.0015 ± 0.046 | -0.021 ± 0.0071 | 0.071 ± 0.047
LPS:CXCL8/IL-8 | 0.006 ± 0.014 | 0.023 ± 0.011 | 0.0455 ± 0.015 | 0.019 ± 0.0042 | 0.0355 ± 0.019 | -0.0185 ± 0.005 | -0.0325 ± 0.037 | 0.017 ± 0.099 | -0.0055 ± 0.0035 | -0.0025 ± 0.035 | 0.016 ± 0.12 | -0.0065 ± 0.023 | 0.016 ± 0.011 | 0.012 ± 0.027 | 0.011 ± 0.0099 | -0.0015 ± 0.005 | -0.022 ± 0.025 | 0.032 ± 0.018 | 0.0335 ± 0.054 | -0.176 ± 0.016
LPS:sPGE2 | 0.0125 ± 0.0078 | 0.027 ± 0.0099 | 0.0025 ± 0.046 | -0.015 ± 0.021 | 0.0015 ± 0.029 | 0.038 ± 0.033 | 0.005 ± 0.0014 | 0.0485 ± 0.067 | -0.0045 ± 0.028 | -0.0005 ± 0.005 | 0.0315 ± 0.036 | 0.018 ± 0.023 | -0.006 ± 0.042 | 0.0045 ± 0.039 | -0.0015 ± 0.005 | -0.0265 ± 0.056 | 0.035 ± 0.02 | 0.006 ± 0.041 | -0.009 ± 0.04 | -0.123 ± 0.023
LPS:sTNF-alpha | 0.031 ± 0.028 | 0.0415 ± 0.021 | 0.0405 ± 0.022 | 0.0115 ± 0.046 | 0.0395 ± 0.019 | 0.007 ± 0.028 | 0.005 ± 0.013 | -0.0005 ± 0.0078 | -0.0095 ± 0.0035 | -0.0095 ± 0.022 | -0.003 ± 0.031 | 0.0065 ± 0.0092 | 0.0135 ± 0.0035 | -0.009 ± 0.0057 | 0 ± 0.0014 | -0.0015 ± 0.013 | -0.0135 ± 0.0078 | -0.0375 ± 0.059 | -0.162 ± 0.0085 | -0.42 ± 0.052
SAg:CCL2/MCP-1 | -0.001 ± 0.058 | 0 ± 0.025 | 0.0135 ± 0.005 | -0.01 ± 0.0085 | 0.011 ± 0.058 | -0.013 ± 0.016 | -0.006 ± 0.0099 | 0.017 ± 0.028 | -0.0145 ± 0.026 | -0.024 ± 0.013 | 0.0115 ± 0.03 | -0.0105 ± 0.022 | -0.0125 ± 0.0035 | 0.0135 ± 0.0035 | -0.018 ± 0.0042 | 0.0035 ± 0.029 | 0.0175 ± 0.022 | -0.014 ± 0.016 | 0.043 ± 0.0085 | 0.0825 ± 0.021
SAg:CD40 | -0.024 ± 0.04 | -0.0255 ± 0.028 | -0.0315 ± 0.012 | -0.0045 ± 0.021 | -0.0045 ± 0.081 | 0.011 ± 0.017 | 0.0025 ± 0.0064 | -0.003 ± 0.02 | -0.023 ± 0.0028 | -0.0155 ± 0.019 | -0.02 ± 0.028 | -0.024 | -0.0355 ± 0.012 | 0.002 ± 0.0071 | -0.003 ± 0.0071 | -0.012 ± 0.0014 | -0.0185 ± 0.032 | -0.042 ± 0.025 | -0.103 ± 0.055 | -0.212 ± 0.055
SAg:CD62E/E-Selectin | -0.011 ± 0.038 | 0.0105 ± 0.015 | 0.0105 ± 0.0064 | -0.028 ± 0.0071 | -0.0615 ± 0.032 | 0.001 ± 0.013 | -0.0075 ± 0.016 | 0.01 ± 0.031 | 0.005 ± 0.04 | -0.0135 ± 0.039 | 0.0155 ± 0.036 | 0.007 ± 0.021 | 0.0035 ± 0.005 | 0.02 ± 0.05 | -0.0115 ± 0.0035 | -0.0035 ± 0.019 | -0.0105 ± 0.0064 | 0.026 ± 0.0085 | 0.0755 ± 0.04 | 0.138 ± 0.036
SAg:CD69 | -0.001 ± 0.0014 | -0.0035 ± 0.00071 | -0.013 ± 0.024 | -0.0375 ± 0.0092 | -0.0735 ± 0.033 | 0.001 ± 0.0085 | -0.0075 ± 0.018 | -0.0125 ± 0.00071 | 0.025 ± 0.0085 | 0.0175 ± 0.005 | 0.0495 ± 0.026 | -0.01 ± 0.028 | -0.0235 ± 0.047 | -0.0215 ± 0.0064 | -0.0105 ± 0.0064 | -0.0195 ± 0.0035 | 0.007 ± 0.011 | -0.0425 ± 0.015 | -0.0215 ± 0.00071 | -0.111 ± 0.0042
SAg:CXCL8/IL-8 | 0.0095 ± 0.005 | -0.0165 ± 0.0021 | 0.044 ± 0.011 | -0.0155 ± 0.026 | 0.055 ± 0.15 | 0.0265 ± 0.059 | -0.0085 ± 0.023 | 0.0095 ± 0.053 | -0.0055 ± 0.037 | 0.0075 ± 0.015 | 0.0055 ± 0.018 | -0.0115 ± 0.019 | -0.0115 ± 0.05 | 0.039 ± 0.1 | -0.012 ± 0.025 | 0.012 ± 0.058 | 0.0165 ± 0.025 | -0.0175 ± 0.016 | 0.06 ± 0.0042 | 0.126 ± 0.019
SAg:CXCL9/MIG | 0.007 ± 0.023 | 0.0085 ± 0.011 | 0.012 ± 0.025 | -0.0145 ± 0.021 | 0.0055 ± 0.0035 | -0.0045 ± 0.0021 | -0.0045 ± 0.0035 | 0.0075 ± 0.012 | -0.0015 ± 0.0021 | -0.0055 ± 0.005 | 0.0105 ± 0.0021 | -0.005 ± 0.011 | -0.011 | -0.005 ± 0.0014 | -0.0015 ± 0.0078 | 0.002 ± 0.018 | 0.0075 ± 0.013 | -0.0085 ± 0.011 | 0.015 ± 0.013 | -0.0255 ± 0.013
SAg:Proliferation | -0.027 ± 0.034 | -0.0435 ± 0.042 | -0.0375 ± 0.03 | -0.003 ± 0.018 | 0.0525 ± 0.057 | -0.0275 ± 0.012 | -0.0025 ± 0.052 | 0.0295 ± 0.076 | -0.0135 ± 0.018 | 0.0105 ± 0.0064 | 0.033 ± 0.018 | -0.0145 ± 0.03 | 0.019 ± 0.0071 | -0.0275 ± 0.0035 | -0.0095 ± 0.049 | 0.0025 ± 0.019 | -0.0065 ± 0.0035 | -0.006 ± 0.0042 | -0.024 ± 0.034 | -0.023 ± 0.035
SAg:SRB | 0 ± 0.0057 | -0.003 ± 0.0042 | -0.005 ± 0.0071 | 0.0035 ± 0.015 | 0.006 ± 0.0057 | -0.012 ± 0.0028 | -0.001 ± 0.017 | 0.0035 ± 0.0035 | -0.0225 ± 0.0035 | -0.02 ± 0.0028 | -0.015 ± 0.021 | 0.0155 ± 0.005 | 0.0035 ± 0.011 | 0.0055 ± 0.0064 | 0.0005 ± 0.0021 | 0.0015 ± 0.0035 | -0.002 ± 0.0057 | -0.0015 ± 0.00071 | -0.016 ± 0.0014 | -0.078 ± 0.0042
